In brackets after ≈: the same amount, converted by molar mass. Where two headings read alike, the source gives them in different places.
Tests used:
[1] = system: S. aureus 2620 (methicillin resistant strain); experiment: MIC; type: cell-based; settings: Staphylococcus aureus; Table B; methicillin resistant strain; read-out: MIC
From the text: (§1) In vitro minimum inhibitory concentrations (MIC) of the AAD-609 complex and of Factors A, B, CC2 and D, using standard microtiter assay procedures, against a number of microorganisms are reported in Table A, which follows.

[2] = pKa by potentiometric titration; settings: 30:70 acetonitrile:water, apparent values, AAD-216A averaged previous results
S. aureus 674 = experiment: In vitro MIC, standard microtiter assay; type: cell-based, Staphylococcus aureus; settings: Staphylococcus aureus, 674; Table A; read-out: MIC
From the text: as §1

[3] = system: S. aureus 910 (methicillin resistant strain); experiment: In vitro MIC, standard microtiter assay; type: cell-based, Staphylococcus aureus; settings: Staphylococcus aureus; Table A; methicillin resistant strain; read-out: MIC
From the text: as §1

S. aureus 675 = experiment: In vitro MIC, standard microtiter assay; type: cell-based, Staphylococcus aureus; settings: Staphylococcus aureus, 675; Table A; read-out: MIC
From the text: as §1

S. aureus 209P = experiment: In vitro MIC, standard microtiter assay; type: cell-based, Staphylococcus aureus; settings: Staphylococcus aureus, 209P; Table A; read-out: MIC
From the text: as §1

S. epidermidis 2683 = experiment: In vitro MIC, standard microtiter assay; type: cell-based; settings: Staphylococcus epidermidis, 2683; Table A; read-out: MIC
From the text: as §1

[4] = system: Streptococcus faecalis 657; experiment: In vitro MIC, standard microtiter assay; type: cell-based; settings: Enterococcus faecalis, 657; Table A; read-out: MIC
From the text: as §1

Clostridium difficile = experiment: In vitro MIC, standard microtiter assay; type: cell-based; settings: Clostridioides difficile; Table A; read-out: MIC
From the text: as §1

Escherichia coli 12140 = experiment: In vitro MIC, standard microtiter assay; type: cell-based; settings: Escherichia coli, 12140; Table A; read-out: MIC
From the text: as §1

[5] = system: Staphylococcus aureus HH127; experiment: In vitro MIC, standard microtiter assay; type: cell-based
From the text: as §1

S. epidermidis 2265 = experiment: In vitro MIC, standard microtiter assay; type: cell-based; settings: Staphylococcus epidermidis, 2265; Table A; read-out: MIC
From the text: as §1

S. epidermidis 2479 = experiment: In vitro MIC, standard microtiter assay; type: cell-based
From the text: as §1

[6] = system: Salmonella gallinarum BC-595; experiment: In vitro MIC, standard microtiter assay; type: cell-based; settings: Salmonella enterica, GALLINARUM; Table A; read-out: MIC
From the text: as §1

[7] = system: S. epidermidis 651 (methicillin resistant strain); experiment: In vitro MIC, standard microtiter assay; type: cell-based; settings: methicillin resistant strain
From the text: as §1

S. faecalis 34358 = experiment: In vitro MIC, standard microtiter assay; type: cell-based, Streptococcus faecalis
From the text: as §1

[8] = system: rumen fermentation (strained rumen fluid); experiment: Rumen in vitro model; parameters: species or system steer; settings: for AAN (alpha amino nitrogen) / AMO (ammonia nitrogen) / LYS (lysine): 6 h; for % PR (percent propionate) / ACE (acetate) / BUT (butyrate) / ETOH (ethanol) / IBU (isobutyrate) / IVA (isovalerate) / PRO (propionate) / TOTAL (total volatile fatty acids) / VAL: 24 h
Description: The AAD-609 antibiotics were characterized in a rumen in vitro model to assess their potential as feed additives for ruminants. […] Specifically, strained rumen fluid (10 ml) obtained from a fistulated steer receiving a roughage ration, was mixed with 10 ml of nutrient broth (20 mg casein hydrolysate, 100 mg maltose, 15 mg urea, 400 mg solka floc (cellulose), 100 mg cellobiose and 100 mg starch) and with a selected growth promotant and incubated at 39° C., with oscillation, for 24 hours. […] Measurement of AMO, LYS and AAN was done with a sample taken from the incubation flask after 6 hours.

[9] = system: mixed intestinal microflora (cecum fluid); experiment: Swine in vitro model; settings: one level, up to 166.67 ppm; 4-5 h
Description: A swine in vitro model was used to characterize AAD-609 antibiotics as potential feed additives in swine and poultry. Mixed intestinal microflora were obtained from ileally-cannulated pigs. Virginiamycin, carbadox, AAD-216 and its components, and AAD-609 Complex (containing less than 5% AAD-216 antibiotics) were tested at one level. […] Glucose (GLU) was spared from microbial degradation. Volatile fatty acids (TOTAL) were the major end-product of microbial metabolism while lactic acid production were reduced. […] Since AAD-609 and AAD-216 give similar in vitro results, it is expected that AAD-609 has similar growth-promoting activity in monogastric animals. Also, the in vitro activity of AAD-609 is similar to the activity previously observed with bacitracin in this model.
The swine in vitro model was carried out by incubating 1.5 ml of cecum fluid, from a swine fed normal rations, mixed with 1.5 ml of a nutrient broth (3 mg casein hydrolysate, 30 mg maltose, 1.25 mg urea, 0.5 mg lysine, and 30 mg cellobiose) and with up to 166.67 parts per million of a selected growth promotant at 39° C., with oscillation, for about 4-5 hours. Results, percentage of control, are reported in the following table in which all abbreviations are as above except that LLA means L-lactate and ETOH means ethanol.

Pharmacokinetics in mice = settings: mice
[10] = system: Hubbard cross day-old chicks; experiment: Growth of chicks; type: in vivo; settings: 8 reps
Description: The effects of virginiamycin, AAD-609 Complex (containing less than 5% AAD-216 antibiotics) and AAD-216 Complex on growth of chicks were evaluated as follows. Hubbard cross day-old chicks were housed in wire-floored poultry caging. Eight chicks were included in each pen/rep. Weights and feed intakes were recorded on days 10 and 17. Results showing animal weight as a percentage of a control fed a normal rye-based ration and animal feed intake per unit weight gain as a percentage of animal feed intake (g) per unit weight gain (g) of the controls are reported in the following table.

Compound: CCCCCCCCCC(=O)NC1C(Oc2c3cc4cc2Oc2c(Cl)cc(cc2Cl)C(O)C2NC(=O)C(NC(=O)C4NC(=O)C4NC(=O)C(NC(=O)C(NC)c5ccc(O)c(c5)Oc5cc(O)c(Cl)c4c5)C(O)c4ccc(c(Cl)c4)O3)c3ccc(O)c(c3)-c3c(OC4OC(CO)C(O)C(O)C4O)cc(O)cc3C(C(=O)O)NC2=O)OC(C(=O)O)C(O)C1O (centres unmarked) [AAD-216 A]
- MIC [1]: 4 µg/mL (≈ 2.24 µM)
- pKa (A) carboxyl on aglycone [2]: 3.0
- pKa (B) carboxyl on side chain [2]: 4.9
- pKa (C) amino group on aglycone [2]: 7.4
- pKa (D) phenolic OH ([2]; first phenolic OH): 8.4
- pKa (D) phenolic OH ([2]; second phenolic OH): 10.0
- pKa (D) phenolic OH ([2]; third phenolic OH): 10.3
- MIC (S. aureus 674): 3.1 µg/mL (≈ 1.73 µM)
- MIC [3]: 3.1 µg/mL (≈ 1.73 µM)
- MIC (S. aureus 675): 12.5 µg/mL (≈ 6.99 µM)
- MIC (S. aureus 209P): 0.8 µg/mL (≈ 0.447 µM)
- MIC (S. epidermidis 2683): 50 µg/mL (≈ 27.9 µM)
- MIC [4]: 0.8 µg/mL (≈ 0.447 µM)
- MIC (Clostridium difficile): 0.25 µg/mL (≈ 0.14 µM)
- MIC (Escherichia coli 12140): > 100 µg/mL
- MIC ([5]; Staphylococcus aureus, HH127, Table A, read-out: MIC): 3.1 µg/mL (≈ 1.73 µM)
- MIC ([5]; Table B): 3.1 µg/mL (≈ 1.73 µM)
- MIC (S. epidermidis 2265): 50 µg/mL (≈ 27.9 µM)
- MIC (S. epidermidis 2479; Staphylococcus epidermidis, 2479, Table A, read-out: MIC): 25 µg/mL (≈ 14 µM)
- MIC (S. epidermidis 2479; Table B): 25 µg/mL (≈ 14 µM)
- MIC [6]: > 100 µg/mL
- MIC ([7]; Staphylococcus epidermidis, Table A, read-out: MIC): 100 µg/mL (≈ 55.9 µM)
- MIC ([7]; Table B): 100 µg/mL (≈ 55.9 µM)
- MIC (S. faecalis 34358; Enterococcus faecalis, 34358, Table A, read-out: MIC): 0.4 µg/mL (≈ 0.224 µM)
- MIC (S. faecalis 34358; Table B): 0.4 µg/mL (≈ 0.224 µM)
- AAN (alpha amino nitrogen) ([8]; 0.50 ppm): 76 % of control
- AMO (ammonia nitrogen) ([8]; 0.50 ppm): 102 % of control
- LYS (lysine) ([8]; 0.50 ppm): 108 % of control
- % PR (percent propionate) ([8]; 0.50 ppm): 106 % of control
- ACE (acetate) ([8]; 0.50 ppm): 96 % of control
- BUT (butyrate) ([8]; 0.50 ppm): 100 % of control
- ETOH (ethanol) ([8]; 0.50 ppm): 0 % of control
- IBU (isobutyrate) ([8]; 0.50 ppm): 125 % of control
- IVA (isovalerate) ([8]; 0.50 ppm): 124 % of control
- PRO (propionate) ([8]; 0.50 ppm): 107 % of control
- TOTAL (total volatile fatty acids) ([8]; 0.50 ppm): 101 % of control
- AAN (alpha amino nitrogen) ([8]; 5.00 ppm): 153 % of control
- AMO (ammonia nitrogen) ([8]; 5.00 ppm): 101 % of control
- LYS (lysine) ([8]; 5.00 ppm): 144 % of control
- % PR (percent propionate) ([8]; 5.00 ppm): 148 % of control
- ACE (acetate) ([8]; 5.00 ppm): 105 % of control
- BUT (butyrate) ([8]; 5.00 ppm): 81 % of control
- ETOH (ethanol) ([8]; 5.00 ppm): 0 % of control
- IBU (isobutyrate) ([8]; 5.00 ppm): 75 % of control
- IVA (isovalerate) ([8]; 5.00 ppm): 48 % of control
- PRO (propionate) ([8]; 5.00 ppm): 153 % of control
- TOTAL (total volatile fatty acids) ([8]; 5.00 ppm): 103 % of control
- VAL ([8]; 5.00 ppm): 56 % of control
- AAN (alpha amino nitrogen) ([8]; 50.00 ppm): 195 % of control
- AMO (ammonia nitrogen) ([8]; 50.00 ppm): 109 % of control
- LYS (lysine) ([8]; 50.00 ppm): 168 % of control
- % PR (percent propionate) ([8]; 50.00 ppm): 140 % of control
- ACE (acetate) ([8]; 50.00 ppm): 93 % of control
- BUT (butyrate) ([8]; 50.00 ppm): 87 % of control
- ETOH (ethanol) ([8]; 50.00 ppm): 0 % of control
- IBU (isobutyrate) ([8]; 50.00 ppm): 112 % of control
- IVA (isovalerate) ([8]; 50.00 ppm): 98 % of control
- PRO (propionate) ([8]; 50.00 ppm): 138 % of control
- TOTAL (total volatile fatty acids) ([8]; 50.00 ppm): 98 % of control
- VAL ([8]; 50.00 ppm): 26 % of control
- % PR (percent propionate) [9]: 117 % of control
- ACE (acetate) [9]: 200 % of control
- BUT (butyrate) [9]: 147 % of control
- ETOH (ethanol) [9]: 167 % of control
- GLU (glucose) [9]: 180 % of control
- IBU (isobutyrate) [9]: 0 % of control
- IVA (isovalerate) [9]: 0 % of control
- LLA (L-lactate) [9]: 2 % of control
- LYS (lysine) [9]: 35 % of control
- PRO (propionate) [9]: 276 % of control
- TOTAL (total volatile fatty acids) [9]: 236 % of control
- VAL [9]: 0 % of control
- Elimination half-life (Pharmacokinetics in mice): 226 min
- Maximum serum concentration (Pharmacokinetics in mice): 121 µg/mL

Compound: virginiamycin
- Feed/gain, days 3-10 ([10]; 10.0 ppm in feed): 99.8 % of control
- Feed/gain, days 3-17 ([10]; 10.0 ppm in feed): 97.5 % of control
- Feed/gain, days 10-17 ([10]; 10.0 ppm in feed): 96.6 % of control
- Mortality ([10]; 10.0 ppm in feed): 4
- Weight, day 10 ([10]; 10.0 ppm in feed): 100.3 % of control
- Weight, day 17 ([10]; 10.0 ppm in feed): 101.8 % of control
- Feed/gain, days 3-10 ([10]; 50.0 ppm in feed): 92.8 % of control
- Feed/gain, days 3-17 ([10]; 50.0 ppm in feed): 83.2 % of control
- Feed/gain, days 10-17 ([10]; 50.0 ppm in feed): 74.3 % of control
- Mortality ([10]; 50.0 ppm in feed): 2
- Weight, day 10 ([10]; 50.0 ppm in feed): 101.5 % of control
- Weight, day 17 ([10]; 50.0 ppm in feed): 120.2 % of control
- % PR (percent propionate) [9]: 69 % of control
- ACE (acetate) [9]: 53 % of control
- BUT (butyrate) [9]: 153 % of control
- ETOH (ethanol) [9]: 25 % of control
- GLU (glucose) [9]: 180 % of control
- IBU (isobutyrate) [9]: 0 % of control
- IVA (isovalerate) [9]: 0 % of control
- LLA (L-lactate) [9]: 4 % of control
- LYS (lysine) [9]: 94 % of control
- PRO (propionate) [9]: 44 % of control
- TOTAL (total volatile fatty acids) [9]: 63 % of control
- VAL [9]: 0 % of control
